Assay results taken from ChEMBL document CHEMBL1201862, “PubChem BioAssay data set” (2004).
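Dose response: 5 concentrations. Exposure: 48 h. Format: 96-well plates. Endpoint: linear interpolation; highest concentration if not reached. GI50 = concentration required for 50% inhibition of growth.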 The source made the active and inactive calls. Cut-off read from the data, not from the text of the source: active = GI50 up to about 1.1 µM and inactive = higher.

What was measured:
Assay in all cases: growth of human tumour cells (NCI), 48 h
MCF7 = system: MCF7
SNB-75 = system: SNB-75
K562 = system: K562
HOP-92 = system: HOP-92
OVCAR-3 = system: OVCAR-3
HL-60 = system: HL-60
MOLT-4 = system: MOLT-4
HOP-62 = system: HOP-62
RXF 393 = system: RXF 393
BT-549 = system: BT-549
NCI-H460 = system: NCI-H460
IGROV-1 = system: IGROV-1
NCI/ADR-RES = system: NCI/ADR-RES
M14 = system: M14
SF-539 = system: SF-539
EKVX = system: EKVX
SK-MEL-2 = system: SK-MEL-2
SF-295 = system: SF-295
HCC 2998 = system: HCC 2998
NCI-H23 = system: NCI-H23

SMILES | GI50 (MCF7) | GI50 (SNB-75) | GI50 (K562) | GI50 (HOP-92) | GI50 (OVCAR-3) | GI50 (HL-60) | GI50 (MOLT-4) | GI50 (HOP-62) | GI50 (RXF 393) | GI50 (BT-549) | GI50 (NCI-H460) | GI50 (IGROV-1) | GI50 (NCI/ADR-RES) | GI50 (M14) | GI50 (SF-539) | GI50 (EKVX) | GI50 (SK-MEL-2) | GI50 (SF-295) | GI50 (HCC 2998) | GI50 (NCI-H23)
c1ccc(C2C(=P(c3ccccc3)(c3ccccc3)c3ccccc3)P=PC2[P+](c2ccccc2)(c2ccccc2)c2ccccc2)cc1.c1ccc([B-](c2ccccc2)(c2ccccc2)c2ccccc2)cc1 (stereo not drawn) | 0.543 µM (active) | 0.582 µM (active) | 0.173 µM (active) | 0.555 µM (active) | 0.579 µM (active) | 0.107 µM (active) | 1.63 µM (inactive) | 0.841 µM (active) | 0.285 µM (active) | 0.721 µM (active) | 0.447 µM (active) | 0.57 µM (active) | 3.48 µM (inactive) | 0.286 µM (active) | 0.656 µM (active) | 4.79 µM (inactive) | 0.675 µM (active) | 0.492 µM (active) | 0.593 µM (active) | 0.351 µM (active)
CCNC(=O)Cc1nc2c(O)ncnc2n1C1OC(CO)C(O)C1O (stereo not drawn) | > 100 µM (inactive) | > 100 µM (inactive) | > 100 µM (inactive) | > 100 µM (inactive) | > 100 µM (inactive) | > 100 µM (inactive) | > 100 µM (inactive) | > 100 µM (inactive) | > 100 µM (inactive) | > 100 µM (inactive) | > 100 µM (inactive) | > 100 µM (inactive) | > 100 µM (inactive) | > 100 µM (inactive) | > 100 µM (inactive) | > 100 µM (inactive) | > 100 µM (inactive) | > 100 µM (inactive) | > 100 µM (inactive) | > 100 µM (inactive)
NCCCNC1(c2cc3ccccc3s2)CCCCC1 | 3.69 µM (inactive) | 10.9 µM (inactive) | 1.85 µM (inactive) | 11.6 µM (inactive) | 7.19 µM (inactive) | 2.64 µM (inactive) | 3.29 µM (inactive) | 10.7 µM (inactive) | 4.17 µM (inactive) | 13.8 µM (inactive) | 1.94 µM (inactive) | 10.6 µM (inactive) | 13.5 µM (inactive) | 1.8 µM (inactive) | 2.38 µM (inactive) | 8.65 µM (inactive) | 1.79 µM (inactive) | 9.48 µM (inactive) | 1.55 µM (inactive) | 15.7 µM (inactive)
C1COCCN1.S=C(S)N1CCOCC1 | 29.4 µM (inactive) | 7.08 µM (inactive) | 1.46 µM (inactive) | 30 µM (inactive) | 2.68 µM (inactive) | 1.12 µM (inactive) | 1.47 µM (inactive) | 92.3 µM (inactive) | 2.43 µM (inactive) | > 100 µM (inactive) | 5.87 µM (inactive) | 6.76 µM (inactive) | > 100 µM (inactive) | 12.8 µM (inactive) | 43.1 µM (inactive) | > 100 µM (inactive) | 36.4 µM (inactive) | > 100 µM (inactive) | 2.59 µM (inactive) | 2.43 µM (inactive)
CC1(C)OC(CCO)CN1C(=O)OCc1ccccc1 (stereo not drawn) | > 100 µM (inactive) | 92 µM (inactive) | > 100 µM (inactive) | > 100 µM (inactive) | > 100 µM (inactive) | > 100 µM (inactive) | > 100 µM (inactive) |  | > 100 µM (inactive) | 33.6 µM (inactive) | > 100 µM (inactive) | > 100 µM (inactive) | > 100 µM (inactive) | > 100 µM (inactive) | > 100 µM (inactive) | > 100 µM (inactive) | > 100 µM (inactive) | > 100 µM (inactive) | > 100 µM (inactive) | > 100 µM (inactive)
O=C(NNc1ccccc1)c1ccc(Cl)c(Cl)c1 | 0.585 µM (active) | 25.8 µM (inactive) | 0.0281 µM (active) | > 78.9 µM (inactive) | 4.7 µM (inactive) | 0.0569 µM (active) | 21.5 µM (inactive) | 54.6 µM (inactive) | 19.3 µM (inactive) | 6.81 µM (inactive) | 0.219 µM (active) | 13.2 µM (inactive) | 5.25 µM (inactive) | 0.324 µM (active) | 0.0718 µM (active) | 4.39 µM (inactive) | 0.875 µM (active) | 0.0676 µM (active) | 2.31 µM (inactive) | 34.4 µM (inactive)
COC(=O)C1=C(C(=O)OC)C(Cc2ccccc2)(OO)OC1=O (stereo not drawn) | 3.78 µM (inactive) | 9.33 µM (inactive) | 2.7 µM (inactive) | 5.94 µM (inactive) | 4.33 µM (inactive) | 0.964 µM (active) | 3.64 µM (inactive) |  | 4.94 µM (inactive) | 6.32 µM (inactive) | 36.2 µM (inactive) | 4.65 µM (inactive) | 7.82 µM (inactive) | 3.8 µM (inactive) | 3.15 µM (inactive) | 11.3 µM (inactive) | 5.65 µM (inactive) | 29.5 µM (inactive) | 60.1 µM (inactive) | 12.7 µM (inactive)
